pIC50: −log10 of the molar value.
biological target: T1, TRPC5 (Homo sapiens, UniProt Q9UL62); experiment: TRPC5 Fluorescence Assay - FLIPR format (HEK-TREx hTRPC5, Riluzole stimulation); type: cell-based; conditions: Table 9, read-out: hTRPCS-FLIPR IC50
T1 construct: expressed in transfected cells; host or cells: HEK 293
T1 sequence (Q9UL62 1-973): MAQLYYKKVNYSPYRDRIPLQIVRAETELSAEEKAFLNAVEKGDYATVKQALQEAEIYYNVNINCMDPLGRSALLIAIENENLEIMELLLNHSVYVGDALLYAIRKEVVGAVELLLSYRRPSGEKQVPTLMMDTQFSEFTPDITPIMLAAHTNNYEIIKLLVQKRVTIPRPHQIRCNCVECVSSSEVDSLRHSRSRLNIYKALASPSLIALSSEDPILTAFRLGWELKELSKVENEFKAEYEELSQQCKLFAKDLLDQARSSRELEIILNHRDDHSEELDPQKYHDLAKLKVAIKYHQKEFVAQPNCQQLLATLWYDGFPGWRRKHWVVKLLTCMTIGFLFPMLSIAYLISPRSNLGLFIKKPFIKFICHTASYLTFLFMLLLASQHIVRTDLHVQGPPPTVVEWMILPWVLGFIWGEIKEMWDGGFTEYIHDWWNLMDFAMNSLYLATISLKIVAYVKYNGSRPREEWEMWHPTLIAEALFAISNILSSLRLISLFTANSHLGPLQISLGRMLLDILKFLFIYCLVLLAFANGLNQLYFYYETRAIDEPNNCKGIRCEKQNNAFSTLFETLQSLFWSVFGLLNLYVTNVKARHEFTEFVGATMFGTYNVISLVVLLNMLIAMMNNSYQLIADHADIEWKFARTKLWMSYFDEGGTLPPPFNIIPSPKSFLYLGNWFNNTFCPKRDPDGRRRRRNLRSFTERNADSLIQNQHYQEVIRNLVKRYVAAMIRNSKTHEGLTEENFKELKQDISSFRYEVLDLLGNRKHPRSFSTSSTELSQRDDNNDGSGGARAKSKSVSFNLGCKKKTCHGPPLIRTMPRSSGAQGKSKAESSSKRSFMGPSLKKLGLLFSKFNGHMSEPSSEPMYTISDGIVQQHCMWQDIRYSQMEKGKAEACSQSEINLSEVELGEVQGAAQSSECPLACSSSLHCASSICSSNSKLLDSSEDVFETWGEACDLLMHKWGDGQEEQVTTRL
Procedure, shortened: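 Tetracycline-induced HEK-TREx hTRPC5 cells loaded with Fluo-4 AM in EBSS were preincubated 5 min with compound (final 30 μM to 0.0001 μM, 0.3% DMSO), then stimulated with 30 μM Riluzole. Peak fluorescence over 5 min gave % inhibition, normalised to a 1 μM reference inhibitor.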

pIC50, 6.00 to 11.00:
C[C@@H](c1ccc(F)cc1C(F)(F)F)N1CCN(c2cn[nH]c(=O)c2Cl)CC1=O [drawing 1049]
C[C@@H](c1ccccc1C(F)(F)F)N1CCN(c2cn[nH]c(=O)c2Cl)CC1=O [drawing 1044]
C[C@H](c1ccc(F)cc1C(F)(F)F)N1C[C@@H](C)N(c2cn[nH]c(=O)c2Cl)CC1=O [drawing 1048]

same assay, conditions: Table 10, read-out: TRPCS-FLIPR IC50

pIC50, 6.00 to 11.00:
C[C@H](c1ccccc1C(F)(F)F)n1nc(C(N)=O)c2c1CCN(c1cn[nH]c(=O)c1Cl)C2 [drawing 1123]
CCN(c1ncc2c(n1)CN(c1cn[nH]c(=O)c1Cl)C2)c1ccccc1Cl [drawing 1148]
CN(c1ncc2c(n1)CN(c1cn[nH]c(=O)c1Cl)C2)c1ccc(F)cc1Cl [drawing 1144]
O=c1[nH]ncc(N2CCc3c(Cc4ccc(F)cc4C(F)(F)F)n[nH]c3C2)c1Cl [drawing 1153]
C[C@@H](c1cccnc1CC(F)F)n1nnc2c1CCN(c1cn[nH]c(=O)c1Cl)C2 [drawing 1125]
C[C@H](c1ccc(F)cc1C(F)(F)F)n1nnc2c1CCN(c1cn[nH]c(=O)c1Cl)[C@H]2C [drawing 1092]
COCc1ccccc1Cn1cnc2c1CCN(c1cn[nH]c(=O)c1Cl)C2 [drawing 1053]
COC[C@H](c1ccccc1C(F)(F)F)n1cnc2c1CCN(c1cn[nH]c(=O)c1Cl)C2 [drawing 1120]
C[C@H](c1ccccc1C(F)F)n1nnc2c1CCN(c1cn[nH]c(=O)c1Cl)C2 [drawing 1100]
C[C@@H]1Cc2c(nnn2[C@@H](C)c2ccc(F)cc2C(F)(F)F)CN1c1cn[nH]c(=O)c1Cl [drawing 1085]
O=c1[nH]ncc(N2CCc3c(nnn3Cc3ccc(F)cc3CC(F)(F)F)C2)c1Cl [drawing 1131]
O=c1[nH]ncc(N2CCc3c(ncn3Cc3ccc(F)cc3Cl)C2)c1Cl [drawing 1136]
C[C@@H](c1ccccc1C(F)F)n1nnc2c1CCN(c1cn[nH]c(=O)c1Cl)C2 [drawing 1106]
C[C@H](c1ccc(F)cc1C(F)F)n1nc(C(N)=O)c2c1CCN(c1cn[nH]c(=O)c1Cl)C2
CS(=O)(=O)c1nc2c(n1Cc1ccccc1C(F)(F)F)CCN(c1cn[nH]c(=O)c1Cl)C2 [drawing 1142]
CNC(=O)c1nc2c(n1Cc1ccccc1C(F)(F)F)CCN(c1cn[nH]c(=O)c1Cl)C2 [drawing 1134]
C[C@@H](c1ccc(F)cc1C(F)F)n1nnc2c1CCN(c1cn[nH]c(=O)c1Cl)C2 [drawing 1107]
CNC(=O)c1nn(Cc2ccc(F)cc2C(F)F)c2c1CN(c1cn[nH]c(=O)c1Cl)CC2 [drawing 1117]
CCc1ncccc1N(C)c1ncc2c(n1)CN(c1cn[nH]c(=O)c1Cl)C2 [drawing 1154]
C[C@@H]1Cc2c(c(C(N)=O)nn2Cc2ccccc2C(F)(F)F)CN1c1cn[nH]c(=O)c1Cl [drawing 1118]
O=c1[nH]ncc(N2CCc3c(ncn3Cc3ccccc3Cl)C2)c1Cl [drawing 1139]
CC(c1ccc(F)cc1C(F)F)n1nc(C(N)=O)c2c1CCN(c1cn[nH]c(=O)c1Cl)C2 (centres unmarked) [drawing 1114]
C[C@@H](c1ccccc1Cl)n1nnc2c1CCN(c1cn[nH]c(=O)c1Cl)C2 [drawing 1140]
[2H]c1nc2c(n1Cc1ccccc1C(F)(F)F)CCN(c1cn[nH]c(=O)c1Cl)C2
O=c1[nH]ncc(N2CCc3c(c(=O)[nH]n3Cc3ccccc3C(F)(F)F)C2)c1Cl [drawing 1081]
COCc1ncccc1Cn1cnc2c1CCN(c1cn[nH]c(=O)c1Cl)C2 [drawing 1065]
C[C@@H]1Cc2c(nnn2[C@@H](C)c2ccccc2C(F)(F)F)CN1c1cn[nH]c(=O)c1Cl [drawing 1071]
NC(=O)c1nc2c(n1Cc1ccccc1C(F)(F)F)CCN(c1cn[nH]c(=O)c1Cl)C2 [drawing 1135]
CNC(=O)c1nn([C@H](C)c2ccccc2C(F)F)c2c1CN(c1cn[nH]c(=O)c1Cl)CC2 [drawing 1113]
C[C@H](c1ccccc1Cl)n1nnc2c1CCN(c1cn[nH]c(=O)c1Cl)C2 [drawing 1133]
C[C@H](c1ccccc1C(F)(F)F)n1nnc2c1CCN(c1cn[nH]c(=O)c1Cl)[C@H]2C [drawing 1078]
CCS(=O)(=O)c1nc2c(n1Cc1ccccc1C(F)(F)F)CCN(c1cn[nH]c(=O)c1Cl)C2 [drawing 1079]

Source: patent publication US20260184708A1, “PYRIDAZINONES AND METHODS OF USE THEREOF” (GFB (ABC), LLC, priority 2017, published 2026)
